Experimental data taken from article PMC4774911, “Biochemical Screening of Five Protein Kinases from Plasmodium falciparum against 14,000 Cell-Active Compounds” (PLoS ONE, 2016).
“And” between values parts separate entries of the source, which are not always exact repeats. Equal values may be shown once.

Experiments:
Assay in all cases: biochemical
Parameters in all cases: endogenous in cells; host or cells: K562 cell extract; species or system K562 (extract); replicate k of n = 2 (each experiment ID is one independent experiment; two experiment IDs per compound)
Conditions in all cases: read-out: KDapp
[1] = target: T1, TAOK3 (Homo sapiens, UniProt Q9H2K8)
T1 sequence (Q9H2K8 1-898): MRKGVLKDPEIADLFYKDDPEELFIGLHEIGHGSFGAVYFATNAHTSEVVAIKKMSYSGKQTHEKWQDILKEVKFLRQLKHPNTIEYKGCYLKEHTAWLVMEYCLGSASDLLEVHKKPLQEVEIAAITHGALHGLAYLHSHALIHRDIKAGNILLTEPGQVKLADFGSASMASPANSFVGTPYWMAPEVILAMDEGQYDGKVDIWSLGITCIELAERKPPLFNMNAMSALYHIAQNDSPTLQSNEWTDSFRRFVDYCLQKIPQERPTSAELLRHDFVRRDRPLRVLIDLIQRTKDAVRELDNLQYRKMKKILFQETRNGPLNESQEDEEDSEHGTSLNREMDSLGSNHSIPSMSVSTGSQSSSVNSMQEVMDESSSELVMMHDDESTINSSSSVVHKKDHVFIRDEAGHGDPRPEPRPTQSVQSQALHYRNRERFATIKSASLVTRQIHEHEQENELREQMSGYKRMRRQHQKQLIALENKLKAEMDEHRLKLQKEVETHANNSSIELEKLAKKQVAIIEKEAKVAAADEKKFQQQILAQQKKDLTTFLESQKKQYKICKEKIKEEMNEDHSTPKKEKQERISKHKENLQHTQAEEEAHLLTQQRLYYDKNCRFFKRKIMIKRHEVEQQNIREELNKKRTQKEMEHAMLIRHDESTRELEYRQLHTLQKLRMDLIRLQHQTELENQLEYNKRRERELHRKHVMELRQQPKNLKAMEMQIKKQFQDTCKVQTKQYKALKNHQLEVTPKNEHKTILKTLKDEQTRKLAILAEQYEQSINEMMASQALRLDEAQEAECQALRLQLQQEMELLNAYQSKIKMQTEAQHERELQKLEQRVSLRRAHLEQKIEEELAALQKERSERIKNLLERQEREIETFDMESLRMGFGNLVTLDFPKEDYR

[2] = target: BMP2K (Homo sapiens, UniProt Q9NSY1)
Chain of BMP2K (Q9NSY1 whole entry): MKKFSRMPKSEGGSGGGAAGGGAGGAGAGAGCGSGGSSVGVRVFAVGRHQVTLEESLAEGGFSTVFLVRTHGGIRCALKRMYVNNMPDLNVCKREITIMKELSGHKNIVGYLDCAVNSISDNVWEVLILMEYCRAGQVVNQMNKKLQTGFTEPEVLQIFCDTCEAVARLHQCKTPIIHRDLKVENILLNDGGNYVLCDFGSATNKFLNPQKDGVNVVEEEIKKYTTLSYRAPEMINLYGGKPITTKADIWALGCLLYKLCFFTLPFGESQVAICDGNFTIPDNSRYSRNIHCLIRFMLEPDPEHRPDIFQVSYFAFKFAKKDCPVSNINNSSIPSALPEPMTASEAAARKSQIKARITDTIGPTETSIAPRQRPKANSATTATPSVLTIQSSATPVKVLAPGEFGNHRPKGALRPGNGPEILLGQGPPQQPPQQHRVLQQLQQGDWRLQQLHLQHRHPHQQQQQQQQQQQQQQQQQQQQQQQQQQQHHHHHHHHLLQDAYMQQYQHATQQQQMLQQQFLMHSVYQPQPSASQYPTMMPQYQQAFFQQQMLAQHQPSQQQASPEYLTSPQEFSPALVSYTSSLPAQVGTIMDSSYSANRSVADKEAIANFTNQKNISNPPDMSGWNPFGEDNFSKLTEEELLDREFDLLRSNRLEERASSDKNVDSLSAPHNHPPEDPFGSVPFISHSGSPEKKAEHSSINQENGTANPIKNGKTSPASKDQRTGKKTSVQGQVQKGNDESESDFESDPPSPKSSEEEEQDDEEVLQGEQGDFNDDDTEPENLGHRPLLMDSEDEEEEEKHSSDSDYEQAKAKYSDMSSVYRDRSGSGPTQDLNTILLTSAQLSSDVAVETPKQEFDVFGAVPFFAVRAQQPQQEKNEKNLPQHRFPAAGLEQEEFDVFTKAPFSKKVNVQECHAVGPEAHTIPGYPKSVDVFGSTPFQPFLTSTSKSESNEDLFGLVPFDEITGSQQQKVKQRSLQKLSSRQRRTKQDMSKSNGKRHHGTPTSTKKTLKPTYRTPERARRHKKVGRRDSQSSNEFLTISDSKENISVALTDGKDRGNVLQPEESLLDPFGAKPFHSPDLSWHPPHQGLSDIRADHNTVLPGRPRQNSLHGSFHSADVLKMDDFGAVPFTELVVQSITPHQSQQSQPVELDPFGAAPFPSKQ

[3] = target: T2, PRKX (Homo sapiens, UniProt P51817)
T2 sequence (P51817 1-358): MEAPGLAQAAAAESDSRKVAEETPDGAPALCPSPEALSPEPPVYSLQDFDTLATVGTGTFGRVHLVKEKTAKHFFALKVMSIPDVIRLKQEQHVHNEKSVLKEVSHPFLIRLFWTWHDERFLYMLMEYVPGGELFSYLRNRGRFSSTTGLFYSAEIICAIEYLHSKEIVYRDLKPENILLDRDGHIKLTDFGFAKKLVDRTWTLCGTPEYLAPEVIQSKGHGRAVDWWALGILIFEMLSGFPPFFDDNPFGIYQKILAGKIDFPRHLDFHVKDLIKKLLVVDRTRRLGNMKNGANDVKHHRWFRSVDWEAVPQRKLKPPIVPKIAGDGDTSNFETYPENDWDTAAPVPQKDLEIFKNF

[4] = target: T3, BMPR2 (Homo sapiens, UniProt Q13873)
T3 sequence (Q13873 1-1038): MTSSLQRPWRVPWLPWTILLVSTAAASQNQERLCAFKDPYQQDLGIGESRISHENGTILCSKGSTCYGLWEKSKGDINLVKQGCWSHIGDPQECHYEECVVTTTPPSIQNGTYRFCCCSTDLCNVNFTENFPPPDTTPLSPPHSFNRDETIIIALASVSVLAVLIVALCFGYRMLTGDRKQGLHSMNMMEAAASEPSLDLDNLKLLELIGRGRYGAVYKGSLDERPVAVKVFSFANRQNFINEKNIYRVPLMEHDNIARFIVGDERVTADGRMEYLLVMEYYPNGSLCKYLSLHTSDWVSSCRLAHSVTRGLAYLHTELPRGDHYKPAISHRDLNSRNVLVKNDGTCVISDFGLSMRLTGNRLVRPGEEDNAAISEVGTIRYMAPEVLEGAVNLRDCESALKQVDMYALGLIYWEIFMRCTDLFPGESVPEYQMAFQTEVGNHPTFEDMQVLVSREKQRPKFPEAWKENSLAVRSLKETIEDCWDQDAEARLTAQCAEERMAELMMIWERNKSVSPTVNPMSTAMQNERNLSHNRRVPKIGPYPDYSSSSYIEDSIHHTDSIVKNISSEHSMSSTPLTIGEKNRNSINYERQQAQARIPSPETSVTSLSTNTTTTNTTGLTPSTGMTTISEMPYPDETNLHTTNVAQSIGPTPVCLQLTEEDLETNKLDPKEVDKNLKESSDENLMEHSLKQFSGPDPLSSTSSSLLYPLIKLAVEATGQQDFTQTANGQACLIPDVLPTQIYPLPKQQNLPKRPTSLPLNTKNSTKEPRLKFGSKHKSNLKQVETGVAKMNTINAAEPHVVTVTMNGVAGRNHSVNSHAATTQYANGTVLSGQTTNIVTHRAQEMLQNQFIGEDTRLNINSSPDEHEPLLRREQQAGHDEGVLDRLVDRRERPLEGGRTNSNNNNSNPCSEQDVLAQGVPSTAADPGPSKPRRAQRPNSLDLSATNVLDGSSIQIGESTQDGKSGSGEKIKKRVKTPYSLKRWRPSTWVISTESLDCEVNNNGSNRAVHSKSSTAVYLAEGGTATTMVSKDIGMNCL

[5] = target: NEK6 (Homo sapiens, UniProt Q9HC98)
Chain of NEK6 (Q9HC98 whole entry): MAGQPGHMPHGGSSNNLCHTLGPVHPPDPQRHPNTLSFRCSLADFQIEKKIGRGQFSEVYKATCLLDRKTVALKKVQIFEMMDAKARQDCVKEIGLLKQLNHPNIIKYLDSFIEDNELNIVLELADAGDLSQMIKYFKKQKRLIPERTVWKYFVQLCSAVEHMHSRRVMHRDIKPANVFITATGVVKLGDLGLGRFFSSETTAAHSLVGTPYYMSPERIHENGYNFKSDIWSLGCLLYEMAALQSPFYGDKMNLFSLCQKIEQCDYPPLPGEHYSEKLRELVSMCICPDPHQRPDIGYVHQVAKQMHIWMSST

Structure (SMILES)	Kd [1]	Kd [2]	Kd [3]	Kd [4]	Kd [5]
Cl.NCC1(c2nc(-c3ccc(Cl)c(O)c3)c(-c3ccncc3)[nH]2)CCCCC1 [TCMDC-141154]	1190 nM and 603 nM				
CN1CCN(c2ccc(Nc3ncc(C#N)c(Nc4ccccc4C(N)=O)n3)cc2)CC1.Cl [TCMDC-134116]		112 nM and 92.8 nM	1030 nM	3470 nM and 4750 nM	160 nM
